Laboratory results as given in article PMC7037393, “Synthesis, Structural, and Cytotoxic Properties of New Water-Soluble Copper(II) Complexes Based on 2,9-Dimethyl-1,10-Phenanthroline and Their One Derivative Containing 1,3,5-Triaza-7-Phosphaadamantane-7-Oxide” (Molecules, 2020).

test system: NHDF cells; assay: Cytotoxicity on normal human dermal fibroblasts, quantitative suspension test according to EN 14476 (DAPI/propidium iodide); format: cell-based; conditions: observed 4 days, aqua media
Method: Normal human dermal fibroblasts (NHDF) (PromoCell, C-12302) were used as normal cells and LoVo (human colorectal adenocarcinoma, ATCC® CCL-229™), A549 (human lung carcinoma, ATCC, No. CCL-185 TM), MCF-7 (human breast adenocarcinoma, ATCC, No. HTB-22^TM) and HeLa (human cervix carcinoma, ATCC, No. CCL-2 TM) were used as cancer cells. They were cultured in DMEM, DMEM–F12 or EMEM (Lonza, CA, USA). Media were supplemented with 10% FBS (Biological Industries, Kibbutz Beit-Haemek, Israel), 2 mM L-glutamine (Biological Industries, Israel), 100 U/mL of penicillin and 100 µg/mL of streptomycin (Sigma, Neustadt an der Weinstrasse, Germany).
The 100 μL of suspension of NHDF, A549, HeLa, LoVo, and MCF7 cells at a density of 4 × 10^4 cells mL^−1 were incubated in a 96-well polystyrene plate (NUNC, Denmark) for 24 h. Product test solutions were prepared in DMEM, DMEM–F12, or EMEM supplemented with additional 2% FBS and 2 mM L-glutamine. Solutions of the reagents at concentrations from 460 (for 1), 454 (2), […] (3), 1242 (Cu(NO3)2), 1732 (PTA=O), and 1440 µM (dmphen) to 4.60 × 10^−6, 4.54 × 10^−6, 4.69 × 10^−6, 1.24 × 10^−5, 1.73 × 10^−5, and 1.44 × 10^−5 µM, respectively, were prepared and transferred (100 μL) into cell culture units (wells of microtiter plates) containing monolayer of cells. Eight units were inoculated with each dilution. Plates were incubated in 37 °C, 5% CO2 and observed daily for 4 days for the development of cytotoxic effect, using an inverted microscope (Olympus Corp., Hamburg, Germany, Axio Observer, Carl Zeiss MicroImaging GmbH). Then the wells were washed in phosphate buffered saline (PBS) and stained using DAPI (4′,6-diamidino-2-phenylindole) and propidium iodide (Merck, Darmstadt, Germany). The study used the fact that DAPI is able to be combined with cellular DNA, permeate through the membrane of cell, rapidly enter the nucleus of living cells and bind with DNA to form a DAPI-DNA complex. […] In cell culture these are cells that are apoptotic or damaged by any physical or chemical agent. Therefore, if these two fluorochrome are given at the same time, DAPI will get to healthy cells faster, while propidium iodide will stain dead or dying cells. The calculation of the ratio of cells counted on a specific area, allows to determine the potency of a substance in inhibiting a specific biological function (IC50).

Compound	IC50 [nM]
CC#N.Cc1ccc2ccc3ccc(C)nc3c2n1.O=[N+]([O-])[O-].O=[N+]([O-])[O-].[Cu+2] [Complex 3, [Cu(NO3)2(dmphen)]∙MeCN]	1720 ± 250
Cc1ccc2ccc3ccc(C)nc3c2n1.Cc1ccc2ccc3ccc(C)nc3c2n1.F[P-](F)(F)(F)(F)F.[Cl-].[Cu+2] [Complex 2, [Cu(Cl)(dmphen)2][PF6]]	230 ± 30
Cc1ccc2ccc3ccc(C)nc3c2n1.F[P-](F)(F)(F)(F)F.O=P12CN3CN(CN(C3)C1)C2.O=[N+]([O-])[O-].[Cu+2] [Complex 1, [Cu(NO3)(PTA=O)(dmphen)][PF6]]	570 ± 80
